Results taken from US20210002623A1, “AMINOPEPTIDASE AND ITS USES” (Centre national de la recherche scientifique, priority 2017, published 2021).

Experiments:
[1] = target: T1, MjTET (Methanocaldococcus jannaschii, UniProt Q57975); test: Effect of inhibitors on MjTET activity (Leu-pNA hydrolysis); format: biochemical; settings: 5 mM Leu-pNA, 0.1 mM CoCl2, pH 8.5, 85° C., 5 min
T1 construct: made in house; host or cells: Escherichia coli ArcticExpress (DE3)-RIL
T1 sequence (Q57975 1-350): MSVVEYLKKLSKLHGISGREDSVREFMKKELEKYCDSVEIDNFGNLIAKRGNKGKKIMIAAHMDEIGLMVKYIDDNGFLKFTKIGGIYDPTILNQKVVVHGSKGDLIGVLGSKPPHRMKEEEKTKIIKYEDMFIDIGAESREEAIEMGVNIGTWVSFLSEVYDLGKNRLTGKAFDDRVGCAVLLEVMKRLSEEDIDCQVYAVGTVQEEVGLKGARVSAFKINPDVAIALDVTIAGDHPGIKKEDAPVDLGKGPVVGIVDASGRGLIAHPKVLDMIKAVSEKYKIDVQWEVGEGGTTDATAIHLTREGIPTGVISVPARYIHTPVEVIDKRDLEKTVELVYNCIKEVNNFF
Protocol: The inhibitory effect of EDTA, Amastatine and Bestatine was tested on the MjTET enzymatic activity. 4 μg/mL of MjTET were incubated with each inhibitor separately in the presence of 5 mM Leu-pNA, 50 mM CHES, 150 mM KCl, 0.1 mM CoCl2, pH 8.5 at 85° C. for 5 min. Three replicates (with inhibitor) and two controls (without inhibitor) were assayed for each experimental point.

[2] = target: T1, MjTET; test: Effect of metal cations on MjTET activity; format: biochemical; settings: 5 mM Leu-pNA, pH 8.5, 75° C., 5 min
Protocol: The metal cations XCl2 were incubated at 0.1 mM concentration with 4 μg/mL of MjTET and 5 mM of Leu-pNA in 50 mM CHES, 150 mM KCl, pH 8.5 for 5 min at 75° C. To assess the effect of metal cations on MjTET activity, the enzymatic reaction was followed as described before.

`O=C(O)CN(CCN(CC(=O)O)CC(=O)O)CC(=O)O` [EDTA] was tested, and the “inhibition of MjTET enzymatic activity” value ([1]; 5 mM EDTA) was “completely inhibited”.
With `[Cl-].[Cl-].[Zn+2]` [ZnCl2] the “effect on MjTET LAP activity” value ([2]; 0.1 mM ZnCl2) was “significant inhibition”.
In the case of `CC(C)C[C@@H](N)[C@H](O)C(=O)N[C@H](C(=O)N[C@H](C(=O)N[C@@H](CC(=O)O)C(=O)O)C(C)C)C(C)C` [amastatine], the “inhibition of MjTET LAP activity” value ([1]; 0.2 mM amastatine) is reported as “completely inhibited”.
In the case of `CC(C)C[C@H](NC(=O)[C@@H](O)[C@H](N)Cc1ccccc1)C(=O)O` [bestatine], the “inhibition of MjTET LAP activity” value ([1]; 1 mM bestatine) is reported as “completely inhibited”.
For `[Cl-].[Cl-].[Co+2]` [cobalt ions], the “effect on MjTET LAP activity” value ([2]; 0.1 mM metal cation) was “increase of LAP activity”.
